Source: patent publication US6051683A, “Immune regulating peptides and method of obtaining them” (Immunotech Developments Inc., priority 1995, dated 2000)
Peptide text beside a SMILES is read from it.

Key:
[1] = tested on: lymphocytes of the guinea pigs; experiment: E-yield (E-POK) of guinea pig lymphocytes after processing with trypsin; type: cell-based; settings: untreated animals 66.5, treated with trypsin 36.1
Method: Biological activity of the new peptide was studied on guinea pigs using recognised testing methods of E-yield of lymphocytes of the guinea pigs subsequent to processing with trypsin.
*Each concentration was tested on 5 animals. The positive growth differs
in relation to the control group EPOK is 50% or higher.

[2] = Solubility of the peptide; type: physicochemical
Text: The peptide obtained by the above formula has the texture of a white powder, which is soluble in water, not completely soluble in alcohol and non soluble on chloroform.
Solubility--Soluble in water, non soluble in chloroform.

CC[C@H](C)[C@H](N)C(=O)N[C@@H](CCC(=O)O)C(=O)N[C@@H](Cc1c[nH]c2ccccc12)C(=O)O [Ile-Glu-Trp, H-Ile-Glu-Trp-OH] (H-Ile-Glu-Trp-OH)
QUANTITY E-POK, (%) after treatment with trypsin and compound ([1]; compound concentration 10^-6 mg/ml): 61.4%
QUANTITY E-POK, (%) after treatment with trypsin and compound ([1]; compound concentration 10^-7 mg/ml): 63.9%
QUANTITY E-POK, (%) after treatment with trypsin and compound ([1]; compound concentration 10^-8 mg/ml): 64.8%
QUANTITY E-POK, (%) after treatment with trypsin and compound ([1]; compound concentration 10^-9 mg/ml): 60.2%
QUANTITY E-POK, (%) after treatment with trypsin and compound ([1]; compound concentration 10^-10 mg/ml): 37.5%
QUANTITY E-POK, (%) after treatment with trypsin and compound ([1]; compound concentration 10^-11 mg/ml): 40.0%
QUANTITY E-POK, (%) after treatment with trypsin and compound ([1]; compound concentration 10^-12 mg/ml): 34.3%
Solubility in chloroform ([2]; chloroform): non soluble
Solubility in water ([2]; water): Soluble
